Test results published in patent US5948814A, “Genistein for the treatment of cystic fibrosis” (priority 1998, dated 1999).
Read-outs that look alike come from different tables or passages of the source.

Columns and labels:
wt-CFTR = wt-CFTR (Homo sapiens, UniProt P13569); details: for TC1 (short mean closed time) / TC2 (long mean closed time) / TO1 (mean open time) / TO2 (long mean open time): Table 1
Procedure: (A): continuous recordings, 4 minutes in length, of a cell-attached patch of wt-CFTR in the presence of 10 μM forskolin or 10 μM forskolin+50 μM genistein are shown. […] (B): dwell-time analysis of (A).
A continuous recording, 12 minutes in length, of cell-attached patch is shown. wt-CFTR was activated with 50 μM forskolin prior to start of trace and was present throughout recording Genistein (50 μM) was present as indicated.
(§1) Electrophysiology: CFTR channel currents were recorded at room temperature (~22° C.) with a patch-clamp amplifier (EPC-9, Heka Electronic), filtered at 100 Hz with a built-in three-pole Bessel filter, and stored on videotapes. Data were subsequently refiltered at 25 Hz with an eight-pole Bessel filter (Frequency Device, Havervill, Mass.) and captured onto a hard disk at a sampling rate of 50 Hz. […] Patch-clamp electrodes were made from Corning 7052 glass capillaries (Warner Instrument, Hammed, Conn.). The pipette resistance was usually 3-5 M.OMEGA., and the seal resistance was >20 G.OMEGA.. The pipette solution contained (in mM) 140 N-methyl-D-glucamine chloride (NMDG-C1), 2 MgCl2, 5Ca Cl2, and 10 HEPES (pH 7.4 with NMDG). The superfusion solution contained (in mM) 150 […], 2 MgCl2, 1 EGTA, 5 glucose, and 5 HEPES (pH 7.4 with NaOH). In excised inside-out patch experiments, the bath solution contained (in mM) 130 MNDG-Cl, 10 EGTA, 10 HEPES, 20 tetraethylammonium chloride, 8 Tris, and 2 MgCl2 (pH 7.4 with NMDG). Pipette potential was held at 50 mV relative to the bath. Downward deflections represent channel opening.
(§2) Statistics: Mean currents and variance were estimated with Igor (Wavemetrics, Lake Oswego, Oreg.). Parameters for mean current-variance relationships and dose-response curves were obtained from least-square fitting with Sigmaplot (Jandel, San Rafael, Calif.). Po was calculated from patches containing a single channel by dividing the […]. Dwell-time analysis was described previously [Baukrowitz et al., 1994]. Calculated values are presented as means±SE. Comparisons among data were made using the Student's t-test with P<0.05 considered significant.
To determine how genistein increases Po, the effects of genistein on single-channel kinetics were examined in cell-attached patches using dwell-time analysis. […] Both traces were recorded in the presence of 10 μM forskolin; 50 μM genistein was added prior to the start of the lower trace.

ΔF508-CFTR [1] = target: T1, ΔF508-CFTR (Homo sapiens, UniProt P13569, DEL508-508); experiment: Mean current-variance analysis of macroscopic currents, NIH/3T3-ΔF508 cells; type: cell-based; parameters: expressed in transfected cells; host or cells: NIH/3T3 cells, stably transfected (NIH/3T3-ΔF508, gift of Dr. Richard Mulligan)
Procedure: FIGS. 4A and B are graphs showing the variance analysis of macroscopic currents for wt- and ΔF508-CFTR wherein (A) is a plot of variance as a function of mean-current amplitude for NIH/3T3-CFTR(.circle-solid.) and NIH/3T3-ΔF508 (.smallcircle.) cells stimulated with 10 μM forskolin plus 50 μM genistein. (B) is a plot of variance as a function of mean-current amplitude for NIH/3T3-CFTR (.circle-solid.) and NIH/3T3-ΔF508 (.smallcircle.) cells stimulated with 10 μM forskolin. Lines are least square regressions.
Electrophysiology: CFTR channel currents were recorded at room temperature (~22° C.) with a patch-clamp amplifier (EPC-9, Heka Electronic), filtered at 100 Hz with a built-in three-pole Bessel filter, and stored on videotapes. Data were subsequently refiltered at 25 Hz with an eight-pole Bessel filter (Frequency Device, Havervill, Mass.) and captured onto a hard disk at a sampling rate of 50 Hz. […] Patch-clamp electrodes were made from Corning 7052 glass capillaries (Warner Instrument, Hammed, Conn.). The pipette resistance was usually 3-5 M.OMEGA., and the seal resistance was >20 G.OMEGA.. […]
Statistics: Mean currents and variance were estimated with Igor (Wavemetrics, Lake Oswego, Oreg.). […] Po was calculated from patches containing a single channel by dividing the open channel current amplitude with the mean-current amplitude. […] Calculated values are presented as means±SE. […]

ΔF508-CFTR [2] = target: T1, ΔF508-CFTR; experiment: Single-channel kinetics (dwell-time analysis), cell-attached patches; type: cell-based; parameters: expressed in transfected cells; host or cells: NIH/3T3 cells, stably transfected (NIH/3T3-ΔF508, gift of Dr. Richard Mulligan)
Procedure: FIGS. 3A and B show recordings of the potentiation of wild-type (wt) and ΔF508-CFTR channel activity by genistein. Channels in cell-attached patches from NIH/3T3-CFTR (FIG. 3A) and NIH/3T3-ΔF508cells (FIG. 3B), were stimulated as indicated with 10 μM forskolin and 50μ genestein.
as §1, §2
To determine how genistein increases Po, the effects of genistein on single-channel kinetics were examined in cell-attached patches using dwell-time analysis. […] Both traces were recorded in the presence of 10 μM forskolin; 50 μM genistein was added prior to the start of the lower trace. […] The mean open times for ΔF508-CFTR were also determined. However, since cell-attached patches containing a single ΔF508-CFTR channel were not observed, a direct assessment of the closed times for ΔF508-CFTR cannot be made. Dwell-time analysis of pooled open times were performed on 14 patches where individual openings of ΔF508-CFTR could be clearly identified.
Table 1. Values are means±SE.

[3] = 50 nM forskolin and 60 μM genistein (so in the source)
[4] = 10 μM forskolin + 50 μM genistein
[5] = Table 1, 10 μM forskolin + 50 μM genistein
[6] = 50 nM forskolin, single exponential fit

wt-CFTR, sequence (P13569 whole entry): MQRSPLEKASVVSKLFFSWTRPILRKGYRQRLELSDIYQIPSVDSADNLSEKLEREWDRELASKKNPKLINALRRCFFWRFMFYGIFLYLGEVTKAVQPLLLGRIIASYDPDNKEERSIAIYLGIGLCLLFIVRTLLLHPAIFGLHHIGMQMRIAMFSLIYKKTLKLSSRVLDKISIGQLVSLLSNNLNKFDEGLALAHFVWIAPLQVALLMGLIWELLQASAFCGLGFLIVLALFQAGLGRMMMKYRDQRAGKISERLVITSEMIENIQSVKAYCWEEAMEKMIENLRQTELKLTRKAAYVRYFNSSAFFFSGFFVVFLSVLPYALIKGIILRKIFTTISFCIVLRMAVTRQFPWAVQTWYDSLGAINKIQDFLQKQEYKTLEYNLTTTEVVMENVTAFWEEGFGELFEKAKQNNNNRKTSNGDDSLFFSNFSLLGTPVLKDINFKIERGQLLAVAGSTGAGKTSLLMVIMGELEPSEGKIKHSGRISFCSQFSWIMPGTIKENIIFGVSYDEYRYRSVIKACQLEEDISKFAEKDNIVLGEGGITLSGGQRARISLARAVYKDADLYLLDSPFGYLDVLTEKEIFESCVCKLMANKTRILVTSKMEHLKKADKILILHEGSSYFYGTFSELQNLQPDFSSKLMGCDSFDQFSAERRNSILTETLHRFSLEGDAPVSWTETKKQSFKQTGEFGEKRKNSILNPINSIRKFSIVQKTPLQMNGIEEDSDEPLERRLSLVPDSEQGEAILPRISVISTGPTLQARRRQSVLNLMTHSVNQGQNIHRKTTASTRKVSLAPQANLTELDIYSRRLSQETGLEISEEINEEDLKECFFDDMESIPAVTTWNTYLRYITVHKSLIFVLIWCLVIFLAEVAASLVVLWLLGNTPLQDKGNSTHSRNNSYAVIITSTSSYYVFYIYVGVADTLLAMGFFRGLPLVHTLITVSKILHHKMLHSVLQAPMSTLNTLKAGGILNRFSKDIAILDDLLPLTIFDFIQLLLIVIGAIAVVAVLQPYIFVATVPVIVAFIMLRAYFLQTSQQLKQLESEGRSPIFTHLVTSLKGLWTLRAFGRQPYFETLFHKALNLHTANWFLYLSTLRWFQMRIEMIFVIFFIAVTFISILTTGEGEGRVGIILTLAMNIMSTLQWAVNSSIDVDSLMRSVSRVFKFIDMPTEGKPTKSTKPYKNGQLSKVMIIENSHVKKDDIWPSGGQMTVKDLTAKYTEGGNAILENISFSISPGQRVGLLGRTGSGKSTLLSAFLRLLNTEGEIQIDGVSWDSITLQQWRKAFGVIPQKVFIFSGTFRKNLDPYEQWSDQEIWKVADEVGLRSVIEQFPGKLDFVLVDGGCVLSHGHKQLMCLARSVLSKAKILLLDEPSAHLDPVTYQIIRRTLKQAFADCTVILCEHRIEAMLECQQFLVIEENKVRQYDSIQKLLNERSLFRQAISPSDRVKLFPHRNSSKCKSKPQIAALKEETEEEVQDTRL
T1 sequence (P13569 with tags, fused parts or gaps DEL508-508): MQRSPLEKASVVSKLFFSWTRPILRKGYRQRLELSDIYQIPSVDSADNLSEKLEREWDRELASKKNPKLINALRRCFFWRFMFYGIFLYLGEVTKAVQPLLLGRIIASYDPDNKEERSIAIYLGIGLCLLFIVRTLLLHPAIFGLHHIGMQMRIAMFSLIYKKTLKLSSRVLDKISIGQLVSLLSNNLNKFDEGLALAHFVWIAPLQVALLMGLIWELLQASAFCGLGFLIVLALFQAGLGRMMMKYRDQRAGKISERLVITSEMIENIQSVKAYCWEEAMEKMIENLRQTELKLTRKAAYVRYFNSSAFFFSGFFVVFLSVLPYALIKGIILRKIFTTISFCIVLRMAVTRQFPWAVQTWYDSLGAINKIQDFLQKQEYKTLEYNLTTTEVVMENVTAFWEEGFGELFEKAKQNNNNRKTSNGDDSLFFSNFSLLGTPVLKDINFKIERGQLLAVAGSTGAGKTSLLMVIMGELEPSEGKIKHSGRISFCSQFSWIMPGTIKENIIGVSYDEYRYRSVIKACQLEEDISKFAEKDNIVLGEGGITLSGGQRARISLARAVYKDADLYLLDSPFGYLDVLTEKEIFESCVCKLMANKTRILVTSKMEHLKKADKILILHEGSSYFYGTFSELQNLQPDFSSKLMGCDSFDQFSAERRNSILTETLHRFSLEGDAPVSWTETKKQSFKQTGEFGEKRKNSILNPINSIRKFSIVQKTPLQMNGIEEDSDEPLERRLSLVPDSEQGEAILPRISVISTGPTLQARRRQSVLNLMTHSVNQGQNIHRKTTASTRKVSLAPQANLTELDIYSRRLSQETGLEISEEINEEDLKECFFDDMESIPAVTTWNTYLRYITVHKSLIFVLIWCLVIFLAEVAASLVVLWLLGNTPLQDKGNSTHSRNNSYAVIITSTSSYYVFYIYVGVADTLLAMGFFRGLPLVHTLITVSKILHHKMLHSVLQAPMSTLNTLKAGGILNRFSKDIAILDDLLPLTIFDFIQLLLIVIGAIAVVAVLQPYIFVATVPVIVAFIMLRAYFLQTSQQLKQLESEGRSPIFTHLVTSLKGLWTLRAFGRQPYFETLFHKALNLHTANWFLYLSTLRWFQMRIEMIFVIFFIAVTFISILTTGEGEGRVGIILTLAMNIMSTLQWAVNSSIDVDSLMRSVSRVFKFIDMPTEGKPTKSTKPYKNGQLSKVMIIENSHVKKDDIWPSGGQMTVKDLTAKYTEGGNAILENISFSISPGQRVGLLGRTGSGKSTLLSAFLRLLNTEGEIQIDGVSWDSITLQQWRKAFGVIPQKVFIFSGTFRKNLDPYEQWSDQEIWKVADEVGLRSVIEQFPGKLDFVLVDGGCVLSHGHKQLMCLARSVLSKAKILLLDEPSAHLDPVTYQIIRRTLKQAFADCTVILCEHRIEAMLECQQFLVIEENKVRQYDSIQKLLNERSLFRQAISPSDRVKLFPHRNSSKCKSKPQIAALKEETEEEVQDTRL

Structure (SMILES): O=c1c(-c2ccc(O)cc2)coc2cc(O)cc(O)c12 [Genistein, 4',5,7-trihydroxyisoflavone]
- increase in Po by genistein (wt-CFTR; 50 nM forskolin): > 10 fold
- mean closed time (wt-CFTR; [3]): ~ 2.5 seconds
- mean open time (wt-CFTR; [3]): ~ 3.0 seconds
- open probability Po (wt-CFTR; 50 nM forskolin plus 50 μM genistein): 0.79
- open probability Po (wt-CFTR; 10 μM forskolin plus 50 μM genistein, four channels): 0.71±0.06
- TC1 (short mean closed time) (wt-CFTR; [4]): 0.49 ± 0.08
- TC2 (long mean closed time) (wt-CFTR; [4]): 3.76 ± 1.09
- TO1 (mean open time) (wt-CFTR; [4]): 0.28 ± 0.11
- TO2 (long mean open time) (wt-CFTR; 10 μM forskolin + 50 μM genistein, significant, <0.05): 2.10 ± 0.30
- effect on long closed time (wt-CFTR; wt-CFTR, FIG. 7): dramatically decreases the long closed time
- slope of variance vs mean current (proportional to 1-Po) (ΔF508-CFTR [1]; 10 μM forskolin and 50 μM genistein): 0.16±0.03 pA
- increase of TO2 of forskolin-activated ΔF508-CFTR current by genistein (ΔF508-CFTR [2]; 10 μM forskolin): two-to threefold
- TO1 (mean open time) (ΔF508-CFTR [2]; [5]): 0.31 ± 0.17
- TO2 (long mean open time) (ΔF508-CFTR [2]; [5]): 2.63 ± 0.37

Structure (SMILES): C=C[C@@]1(C)CC(=O)[C@]2(O)[C@@]3(C)[C@@H](O)CCC(C)(C)[C@@H]3[C@H](O)[C@H](OC(C)=O)[C@@]2(C)O1 [forskolin]
- TC2 (wt-CFTR; 50 nM forskolin): ~ 22 seconds
- open probability Po (wt-CFTR; 50 nM forskolin): 0.07
- mean closed time (wt-CFTR; [6]): ~ 22 seconds
- mean open time (wt-CFTR; [6]): ~ 0.9 seconds
- TC2 (wt-CFTR; 10 μM forskolin): ~ 3 seconds
- open probability Po (wt-CFTR; 10 μM forskolin, four channels): 0.27±0.03
- TC1 (short mean closed time) (wt-CFTR; 10 μM forskolin): 0.39 ± 0.11
- TC2 (long mean closed time) (wt-CFTR; 10 μM forskolin): 2.98 ± 0.81
- TO1 (mean open time) (wt-CFTR; 10 μM forskolin): 0.24 ± 0.01
- TO2 (long mean open time) (wt-CFTR; 10 μM forskolin): 0.88 ± 0.09
- increase of long closed time on reducing forskolin (wt-CFTR; forskolin reduced from 10 μM to 50 nM): ~ 10 fold
- slope of variance vs mean current (proportional to 1-Po) (ΔF508-CFTR [1]; 10 μM forskolin): 0.72±0.06 pA
- average long closing time (ΔF508-CFTR [2]; 10 μM forskolin alone, at least 5 channels in patch): 6.1 s
- TO2 (so in the source), estimated (ΔF508-CFTR [2]; 10 μM forskolin, from observed closed time and minimal number of channels): about 30 seconds
- TO1 (mean open time) (ΔF508-CFTR [2]; Table 1, 10 μM forskolin): 0.30 ± 0.11
- TO2 (long mean open time) (ΔF508-CFTR [2]; Table 1, 10 μM forskolin): 0.92 ± 0.12
- TC2 (long mean closed time), estimation (ΔF508-CFTR [2]; Table 1, 10 μM forskolin, estimated from observed closed time and minimum number of channels): > 30
